Measured values reported in ChEMBL document CHEMBL3991601, “The target landscape of clinical kinase drugs” (Science, 2017).
Active and inactive are the calls of the source. For most assays here, no stated cut-off is given here; in the data, actives have a measured Kd and inactives only a lower limit.

How the values were obtained:
[1] = target: Protein kinase C alpha type (Homo sapiens, UniProt P17252)
ADP/ATP translocase 2 = target: T1, ADP/ATP translocase 2 (Homo sapiens, UniProt P05141)
T1 sequence (P05141 whole entry): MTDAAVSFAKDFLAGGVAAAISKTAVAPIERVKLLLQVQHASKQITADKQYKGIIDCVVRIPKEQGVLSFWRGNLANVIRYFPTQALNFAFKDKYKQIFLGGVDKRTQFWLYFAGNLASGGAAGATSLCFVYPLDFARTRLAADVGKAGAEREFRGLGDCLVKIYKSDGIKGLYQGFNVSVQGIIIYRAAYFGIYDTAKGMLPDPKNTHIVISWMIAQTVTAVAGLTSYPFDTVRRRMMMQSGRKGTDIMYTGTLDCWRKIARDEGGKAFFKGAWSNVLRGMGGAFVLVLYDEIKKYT

[2] = target: Mitotic checkpoint serine/threonine-protein kinase BUB1 (Homo sapiens, UniProt O43683)
[3] = target: 26S proteasome regulatory subunit 6B (Homo sapiens, UniProt P43686)
[4] = target: T2, Interleukin-1 receptor-associated kinase 3 (Homo sapiens, UniProt Q9Y616)
T2 sequence (Q9Y616 whole entry): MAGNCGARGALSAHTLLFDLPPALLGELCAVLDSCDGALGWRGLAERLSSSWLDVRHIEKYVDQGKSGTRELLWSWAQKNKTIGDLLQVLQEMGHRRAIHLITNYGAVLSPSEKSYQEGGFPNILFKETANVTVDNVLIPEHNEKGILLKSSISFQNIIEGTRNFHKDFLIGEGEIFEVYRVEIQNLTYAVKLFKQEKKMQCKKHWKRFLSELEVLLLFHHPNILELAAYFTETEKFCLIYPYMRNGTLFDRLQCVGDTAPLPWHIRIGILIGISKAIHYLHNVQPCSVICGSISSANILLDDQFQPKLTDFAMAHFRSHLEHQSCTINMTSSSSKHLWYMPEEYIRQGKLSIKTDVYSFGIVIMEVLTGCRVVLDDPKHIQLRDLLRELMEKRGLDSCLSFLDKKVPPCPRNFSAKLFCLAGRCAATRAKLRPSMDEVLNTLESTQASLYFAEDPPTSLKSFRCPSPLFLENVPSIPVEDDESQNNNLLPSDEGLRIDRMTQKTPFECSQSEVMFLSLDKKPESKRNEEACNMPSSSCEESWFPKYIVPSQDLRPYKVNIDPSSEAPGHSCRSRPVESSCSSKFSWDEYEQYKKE

[5] = target: Serine/threonine-protein kinase SIK2 (Homo sapiens, UniProt Q9H0K1)
[6] = target: T3, EKC/KEOPS complex subunit TP53RK (Homo sapiens, UniProt Q96S44)
T3 sequence (Q96S44 whole entry): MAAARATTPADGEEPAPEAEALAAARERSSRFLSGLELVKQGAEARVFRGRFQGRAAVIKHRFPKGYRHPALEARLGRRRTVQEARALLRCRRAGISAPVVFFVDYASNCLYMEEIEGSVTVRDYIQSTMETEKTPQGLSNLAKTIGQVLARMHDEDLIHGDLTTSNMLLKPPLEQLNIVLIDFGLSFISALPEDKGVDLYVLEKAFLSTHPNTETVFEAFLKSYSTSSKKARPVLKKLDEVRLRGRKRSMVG

[7] = target: Protein kinase C beta type (Homo sapiens, UniProt P05771)
[8] = target: Ribosomal protein S6 kinase alpha-5 (Homo sapiens, UniProt O75582)
[9] = target: T4, Tyrosine-protein kinase Tec (Homo sapiens, UniProt P42680)
T4 sequence (P42680 whole entry): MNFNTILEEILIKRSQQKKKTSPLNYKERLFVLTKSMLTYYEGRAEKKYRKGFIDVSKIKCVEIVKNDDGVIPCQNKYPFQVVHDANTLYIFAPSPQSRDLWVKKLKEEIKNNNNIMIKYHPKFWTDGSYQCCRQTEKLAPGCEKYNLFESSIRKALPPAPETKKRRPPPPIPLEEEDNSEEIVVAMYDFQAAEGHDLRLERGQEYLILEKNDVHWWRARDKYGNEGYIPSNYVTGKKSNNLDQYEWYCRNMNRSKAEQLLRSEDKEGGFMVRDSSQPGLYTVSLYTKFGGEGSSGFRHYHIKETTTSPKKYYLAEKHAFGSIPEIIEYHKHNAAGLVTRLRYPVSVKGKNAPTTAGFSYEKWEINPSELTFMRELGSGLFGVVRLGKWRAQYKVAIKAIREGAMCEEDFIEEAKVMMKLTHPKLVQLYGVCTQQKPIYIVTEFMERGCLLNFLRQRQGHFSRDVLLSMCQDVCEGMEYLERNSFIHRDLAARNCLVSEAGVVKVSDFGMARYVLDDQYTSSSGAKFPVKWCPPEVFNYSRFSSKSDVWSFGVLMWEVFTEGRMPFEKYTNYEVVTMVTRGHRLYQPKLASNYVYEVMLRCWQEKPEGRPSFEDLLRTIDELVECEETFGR

[10] = target: T5, Adenine phosphoribosyltransferase (Homo sapiens, UniProt P07741)
T5 sequence (P07741 whole entry): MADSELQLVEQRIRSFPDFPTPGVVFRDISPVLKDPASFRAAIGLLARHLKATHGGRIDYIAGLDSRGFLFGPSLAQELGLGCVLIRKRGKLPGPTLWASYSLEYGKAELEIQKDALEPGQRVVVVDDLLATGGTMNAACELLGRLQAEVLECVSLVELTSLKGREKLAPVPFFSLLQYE

Chain of 26S proteasome regulatory subunit 6B (P43686 whole entry): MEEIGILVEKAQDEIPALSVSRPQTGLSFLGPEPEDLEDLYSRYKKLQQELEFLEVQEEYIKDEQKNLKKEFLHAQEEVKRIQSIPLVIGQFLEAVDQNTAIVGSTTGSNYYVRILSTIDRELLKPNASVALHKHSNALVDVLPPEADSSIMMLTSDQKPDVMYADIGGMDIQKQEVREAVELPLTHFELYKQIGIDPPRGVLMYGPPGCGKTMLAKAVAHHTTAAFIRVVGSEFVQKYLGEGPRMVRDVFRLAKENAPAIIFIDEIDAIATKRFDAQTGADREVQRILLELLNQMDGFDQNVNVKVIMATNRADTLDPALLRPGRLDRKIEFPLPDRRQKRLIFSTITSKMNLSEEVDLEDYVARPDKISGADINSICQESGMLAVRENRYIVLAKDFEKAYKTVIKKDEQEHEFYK
Chain of Ribosomal protein S6 kinase alpha-5 (O75582 whole entry): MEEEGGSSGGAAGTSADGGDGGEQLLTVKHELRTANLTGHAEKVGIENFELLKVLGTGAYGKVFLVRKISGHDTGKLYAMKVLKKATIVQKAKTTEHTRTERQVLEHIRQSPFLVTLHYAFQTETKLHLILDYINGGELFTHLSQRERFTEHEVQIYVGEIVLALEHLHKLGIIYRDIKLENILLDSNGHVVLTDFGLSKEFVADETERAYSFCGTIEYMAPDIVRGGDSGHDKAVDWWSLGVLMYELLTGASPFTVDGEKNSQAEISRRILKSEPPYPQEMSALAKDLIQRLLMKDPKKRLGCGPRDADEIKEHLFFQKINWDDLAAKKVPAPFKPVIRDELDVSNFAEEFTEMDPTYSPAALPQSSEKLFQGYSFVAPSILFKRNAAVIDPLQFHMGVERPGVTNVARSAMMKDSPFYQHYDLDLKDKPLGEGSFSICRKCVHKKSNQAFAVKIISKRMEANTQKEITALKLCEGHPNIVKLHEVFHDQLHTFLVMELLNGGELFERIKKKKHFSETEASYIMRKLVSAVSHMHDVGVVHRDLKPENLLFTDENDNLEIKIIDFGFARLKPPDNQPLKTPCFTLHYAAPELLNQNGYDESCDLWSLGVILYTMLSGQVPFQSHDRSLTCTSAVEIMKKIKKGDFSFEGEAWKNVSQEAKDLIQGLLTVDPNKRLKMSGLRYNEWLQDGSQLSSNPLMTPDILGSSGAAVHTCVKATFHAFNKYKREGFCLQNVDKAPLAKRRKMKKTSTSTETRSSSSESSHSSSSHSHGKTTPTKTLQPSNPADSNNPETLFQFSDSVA
Chain of Serine/threonine-protein kinase SIK2 (Q9H0K1 whole entry): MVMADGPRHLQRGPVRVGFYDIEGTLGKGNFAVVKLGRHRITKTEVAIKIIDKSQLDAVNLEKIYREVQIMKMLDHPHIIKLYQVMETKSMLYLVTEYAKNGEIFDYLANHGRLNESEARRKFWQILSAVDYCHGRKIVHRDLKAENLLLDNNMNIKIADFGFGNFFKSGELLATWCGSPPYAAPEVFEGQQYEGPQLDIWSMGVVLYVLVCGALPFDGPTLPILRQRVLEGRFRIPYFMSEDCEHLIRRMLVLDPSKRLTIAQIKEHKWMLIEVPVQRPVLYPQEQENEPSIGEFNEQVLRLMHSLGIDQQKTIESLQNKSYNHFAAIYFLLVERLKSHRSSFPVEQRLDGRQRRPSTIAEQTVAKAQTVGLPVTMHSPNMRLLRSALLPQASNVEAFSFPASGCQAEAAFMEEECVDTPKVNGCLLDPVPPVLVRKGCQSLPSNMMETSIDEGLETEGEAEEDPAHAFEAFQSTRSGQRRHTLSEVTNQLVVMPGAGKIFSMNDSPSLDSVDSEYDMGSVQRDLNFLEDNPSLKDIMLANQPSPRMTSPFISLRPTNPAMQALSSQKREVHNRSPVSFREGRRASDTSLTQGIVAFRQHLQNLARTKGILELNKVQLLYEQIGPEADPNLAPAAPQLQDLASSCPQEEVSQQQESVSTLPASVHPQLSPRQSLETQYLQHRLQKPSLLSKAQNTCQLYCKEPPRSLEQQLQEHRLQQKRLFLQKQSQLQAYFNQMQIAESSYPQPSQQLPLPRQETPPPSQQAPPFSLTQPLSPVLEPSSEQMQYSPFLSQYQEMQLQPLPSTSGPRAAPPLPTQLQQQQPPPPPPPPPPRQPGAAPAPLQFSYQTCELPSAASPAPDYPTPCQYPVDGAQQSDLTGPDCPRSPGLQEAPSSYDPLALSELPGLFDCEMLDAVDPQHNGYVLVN
Chain of Protein kinase C beta type (P05771 whole entry): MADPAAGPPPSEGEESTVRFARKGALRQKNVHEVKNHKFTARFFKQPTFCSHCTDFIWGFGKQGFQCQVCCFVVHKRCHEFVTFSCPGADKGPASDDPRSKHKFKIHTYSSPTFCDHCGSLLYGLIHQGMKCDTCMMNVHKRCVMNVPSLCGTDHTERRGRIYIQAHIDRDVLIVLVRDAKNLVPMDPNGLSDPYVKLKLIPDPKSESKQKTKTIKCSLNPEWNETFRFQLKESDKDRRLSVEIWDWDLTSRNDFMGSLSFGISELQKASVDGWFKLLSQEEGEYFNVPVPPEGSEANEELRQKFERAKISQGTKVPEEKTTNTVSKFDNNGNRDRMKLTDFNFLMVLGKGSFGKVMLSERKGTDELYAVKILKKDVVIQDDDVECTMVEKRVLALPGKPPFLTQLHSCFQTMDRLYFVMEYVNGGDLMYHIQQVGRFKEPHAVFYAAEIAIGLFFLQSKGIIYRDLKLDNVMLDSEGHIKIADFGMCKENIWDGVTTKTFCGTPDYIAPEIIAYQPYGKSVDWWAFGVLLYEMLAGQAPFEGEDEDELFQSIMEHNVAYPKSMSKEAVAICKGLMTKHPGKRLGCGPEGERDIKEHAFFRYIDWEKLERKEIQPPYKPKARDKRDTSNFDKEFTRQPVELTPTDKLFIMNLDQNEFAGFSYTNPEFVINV
Chain of Mitotic checkpoint serine/threonine-protein kinase BUB1 (O43683 whole entry): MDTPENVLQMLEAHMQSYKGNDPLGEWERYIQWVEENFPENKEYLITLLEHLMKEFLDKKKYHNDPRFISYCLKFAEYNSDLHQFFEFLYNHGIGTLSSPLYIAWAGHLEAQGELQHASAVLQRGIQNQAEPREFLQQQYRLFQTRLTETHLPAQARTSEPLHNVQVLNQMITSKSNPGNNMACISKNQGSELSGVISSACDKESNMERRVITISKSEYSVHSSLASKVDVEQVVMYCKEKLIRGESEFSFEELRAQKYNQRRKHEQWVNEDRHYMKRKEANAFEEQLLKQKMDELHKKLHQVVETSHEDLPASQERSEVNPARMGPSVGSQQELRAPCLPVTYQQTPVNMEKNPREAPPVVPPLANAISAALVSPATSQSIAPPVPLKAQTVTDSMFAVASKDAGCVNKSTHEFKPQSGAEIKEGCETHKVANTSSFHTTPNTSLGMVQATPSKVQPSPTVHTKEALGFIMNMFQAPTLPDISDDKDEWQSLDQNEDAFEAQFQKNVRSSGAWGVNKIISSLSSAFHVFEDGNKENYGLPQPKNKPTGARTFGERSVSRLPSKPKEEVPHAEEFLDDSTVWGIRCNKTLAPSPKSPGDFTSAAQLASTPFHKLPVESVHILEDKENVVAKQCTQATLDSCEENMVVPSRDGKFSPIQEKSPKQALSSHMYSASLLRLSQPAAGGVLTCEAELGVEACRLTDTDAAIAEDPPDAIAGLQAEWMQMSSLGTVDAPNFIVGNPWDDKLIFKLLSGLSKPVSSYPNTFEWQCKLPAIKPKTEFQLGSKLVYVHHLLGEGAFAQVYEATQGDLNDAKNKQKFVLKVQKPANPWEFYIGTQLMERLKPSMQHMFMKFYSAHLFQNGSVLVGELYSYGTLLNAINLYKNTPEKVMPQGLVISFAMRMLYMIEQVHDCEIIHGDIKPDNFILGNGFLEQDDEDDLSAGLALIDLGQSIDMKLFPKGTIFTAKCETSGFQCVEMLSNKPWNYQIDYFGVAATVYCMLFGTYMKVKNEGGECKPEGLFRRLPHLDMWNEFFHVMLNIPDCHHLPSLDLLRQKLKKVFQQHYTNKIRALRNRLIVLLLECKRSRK

| Structure (SMILES) | Kd [1] | Kd (ADP/ATP translocase 2) | Kd [2] | Kd [3] | Kd [4] | Kd [5] | Kd [6] | Kd [7] | Kd [8] | Kd [9] | Kd [10] |
| --- | --- | --- | --- | --- | --- | --- | --- | --- | --- | --- | --- |
| S=C(NCc1ccc2c(c1)OCO2)N1CCN(c2ncnc3c2oc2ccccc23)CC1 [AMUVATINIB] | > 30 µM (inactive) | > 30 µM (inactive) | > 30 µM (inactive) | > 30 µM (inactive) | > 30 µM (inactive) | > 30 µM (inactive) | > 30 µM (inactive) | > 30 µM (inactive) | > 30 µM (inactive) | > 30 µM (inactive) | > 30 µM (inactive) |
| COc1ccc(-c2ccc3ncc4c(c3c2)n(-c2ccc(N3CCNCC3)c(C(F)(F)F)c2)c(=O)n4C)cn1 [BGT-226 FREE BASE] | > 30 µM (inactive) | > 30 µM (inactive) | > 30 µM (inactive) | > 30 µM (inactive) | > 30 µM (inactive) | > 30 µM (inactive) | 1.01 µM (active) | > 30 µM (inactive) | > 30 µM (inactive) | > 30 µM (inactive) | > 30 µM (inactive) |
| COc1cc2nccc(Oc3ccc(NC(=O)C4(C(=O)Nc5ccc(F)cc5)CC4)cc3)c2cc1OC [CABOZANTINIB] | > 30 µM (inactive) | > 30 µM (inactive) | > 30 µM (inactive) | > 30 µM (inactive) | > 30 µM (inactive) | > 30 µM (inactive) | > 30 µM (inactive) | > 30 µM (inactive) | > 30 µM (inactive) | > 30 µM (inactive) | > 30 µM (inactive) |
| Cn1c(=O)n(-c2ccc(C(C)(C)C#N)cc2)c2c3cc(-c4cnc5ccccc5c4)ccc3ncc21 [DACTOLISIB] | > 30 µM (inactive) | > 30 µM (inactive) | > 30 µM (inactive) | > 30 µM (inactive) | > 30 µM (inactive) | > 30 µM (inactive) | > 30 µM (inactive) | > 30 µM (inactive) | > 30 µM (inactive) | > 30 µM (inactive) | > 30 µM (inactive) |
| CC[C@@](C)(Nc1ccnc(-c2c[nH]c3ncccc23)n1)C(=O)NCC(F)(F)F [DECERNOTINIB] | 0.117 µM (active) | > 30 µM (inactive) | > 30 µM (inactive) | > 30 µM (inactive) | > 30 µM (inactive) | > 30 µM (inactive) | 2.83 µM (active) | 0.426 µM (active) | > 30 µM (inactive) | > 30 µM (inactive) | > 30 µM (inactive) |
| CNC(=O)c1ccc(Nc2ncc(C(F)(F)F)c(NCc3nccnc3N(C)S(C)(=O)=O)n2)cc1 [DEFACTINIB] | > 30 µM (inactive) | > 30 µM (inactive) | > 30 µM (inactive) | > 30 µM (inactive) | > 30 µM (inactive) | > 30 µM (inactive) | > 30 µM (inactive) | > 30 µM (inactive) | > 30 µM (inactive) | > 30 µM (inactive) | > 30 µM (inactive) |
| COc1cc(Nc2ncc(F)c(Nc3ccc4c(n3)N(COP(=O)(O)O)C(=O)C(C)(C)O4)n2)cc(OC)c1OC [FOSTAMATINIB] | > 30 µM (inactive) | > 30 µM (inactive) | > 30 µM (inactive) | > 30 µM (inactive) | 1.29 µM (active) | > 30 µM (inactive) | > 30 µM (inactive) | > 30 µM (inactive) | > 30 µM (inactive) | > 30 µM (inactive) | > 30 µM (inactive) |
| C#Cc1cccc(Nc2ncnc3cc4c(cc23)OCCOCCOCCO4)c1 [ICOTINIB] | > 30 µM (inactive) | > 30 µM (inactive) | 2.91 µM (active) | > 30 µM (inactive) | > 30 µM (inactive) | > 30 µM (inactive) | > 30 µM (inactive) | > 30 µM (inactive) | > 30 µM (inactive) | > 30 µM (inactive) | > 30 µM (inactive) |
| Cc1ccc(C(=O)Nc2ccc(Oc3cc4cnn(C)c4cc3-c3cn[nH]c3)c(F)c2)c(=O)n1-c1ccc(F)cc1 [MERESTINIB] | > 30 µM (inactive) | > 30 µM (inactive) | > 30 µM (inactive) | > 30 µM (inactive) | > 30 µM (inactive) | > 30 µM (inactive) | > 30 µM (inactive) | > 30 µM (inactive) | > 30 µM (inactive) | > 30 µM (inactive) | > 30 µM (inactive) |
| O=C(NOC[C@H](O)CO)c1ccc(F)c(F)c1Nc1ccc(I)cc1F [MIRDAMETINIB] | > 30 µM (inactive) | > 30 µM (inactive) | > 30 µM (inactive) | > 30 µM (inactive) | > 30 µM (inactive) | > 30 µM (inactive) | > 30 µM (inactive) | > 30 µM (inactive) | > 30 µM (inactive) | > 30 µM (inactive) | > 30 µM (inactive) |

The next lines start with the values.

| Kd [1] | Kd (ADP/ATP translocase 2) | Kd [2] | Kd [3] | Kd [4] | Kd [5] | Kd [6] | Kd [7] | Kd [8] | Kd [9] | Kd [10] | Structure (SMILES) |
| --- | --- | --- | --- | --- | --- | --- | --- | --- | --- | --- | --- |
| > 30 µM (inactive) | > 30 µM (inactive) | > 30 µM (inactive) | > 30 µM (inactive) | > 30 µM (inactive) | > 30 µM (inactive) | > 30 µM (inactive) | > 30 µM (inactive) | > 30 µM (inactive) | > 30 µM (inactive) | > 30 µM (inactive) | Cc1cc(Nc2nc(N[C@@H](C)c3ncc(F)cn3)ncc2Cl)n[nH]1 [AZD-1480] |
| 1.56 µM (active) | > 30 µM (inactive) | > 30 µM (inactive) | > 30 µM (inactive) | > 30 µM (inactive) | 0.048 µM (active) | > 30 µM (inactive) | > 30 µM (inactive) | > 30 µM (inactive) | > 30 µM (inactive) | > 30 µM (inactive) | COc1cccc(Nc2ncnn3ccc(CN4CC[C@@H](N)[C@H](O)C4)c23)c1 [BMS-690514] |
| > 30 µM (inactive) | > 30 µM (inactive) | > 30 µM (inactive) | > 30 µM (inactive) | > 30 µM (inactive) | > 30 µM (inactive) | > 30 µM (inactive) | > 30 µM (inactive) | > 30 µM (inactive) | > 30 µM (inactive) | > 30 µM (inactive) | c1cc(OCCN2CCCCC2)cc(-c2n[nH]c3ccc(-c4nc[nH]n4)cc23)c1 [CC-401] |
| > 30 µM (inactive) | > 30 µM (inactive) | > 30 µM (inactive) | > 30 µM (inactive) | > 30 µM (inactive) | > 30 µM (inactive) | > 30 µM (inactive) | > 30 µM (inactive) | > 30 µM (inactive) | > 30 µM (inactive) | > 30 µM (inactive) | COc1cc2ncnc3c2cc1OCCCCCN(C)Cc1ccc(Br)cc1N3 [JNJ-26483327] |
